The source made the active and inactive calls. No cut-off for these calls is given here.
What was measured:
[1] = Induction of ROS generation in aqueous solution assessed as singlet oxygen generation (1O2) at 10 ug/ml pretreated with compound followed by light irradiation for 28 mins by fluorescence based analysis; assay type: functional; conditions: dose 10.0 µg/ml
[2] = Induction of ROS generation in aqueous solution assessed as hydroxyl radical generation (.OH) at 10 ug/ml pretreated with compound followed by light irradiation for 28 mins by fluorescence based analysis; assay type: functional; conditions: dose 10.0 µg/ml
Staphylococcus aureus [3] = test: Photodynamic antibacterial activity against Staphylococcus aureus ATCC 25923 assessed as log reduction in colony forming units at 50 ug/ml preincubated for 5 mins in PBS followed by light irradiation for 20 mins and later cultured on LB agar plate for 18 hrs by plate-count method; assay type: functional; conditions: dose 50 µg/ml; time 1105 min; 18.42 h
[4] = Aqueous solubility of the compound relative to berberine; assay type: physicochemical; conditions: buffer
Staphylococcus aureus [5] = test: Antibacterial activity against Staphylococcus aureus assessed as inhibition of bacterial growth by CLSI based broth microdilution method; assay type: functional
Escherichia coli [6] = test: Antibacterial activity against Escherichia coli assessed as inhibition of bacterial growth by CLSI based broth microdilution method; assay type: functional, organism-based
Staphylococcus aureus [7] = test: Antibacterial activity against Staphylococcus aureus ATCC 25923 assessed as reduction in colony forming units at 50 ug/ml preincubated for 5 to 20 mins in PBS followed by culturing on LB agar plate for 18 hrs by plate-count method; assay type: functional, organism-based; conditions: dose 50.0 µg/ml, time 1085-1100 min
Staphylococcus aureus [8] = test: Photodynamic antibacterial activity against Staphylococcus aureus ATCC 25923 assessed as reduction in colony forming units at 50 ug/ml preincubated for 5 mins in PBS followed by light irradiation for 5 to 20 mins and later cultured on LB agar plate for 18 hrs by plate-count method; assay type: functional, organism-based; conditions: dose 50.0 µg/ml, time 1090-1105 min
Staphylococcus aureus [9] = test: Photodynamic antibacterial activity against Staphylococcus aureus ATCC 29213 assessed as reduction in colony forming units at 50 ug/ml preincubated for 5 mins in PBS followed by light irradiation for 20 mins and later cultured on LB agar plate for 18 hrs by plate-count method; assay type: functional, organism-based; conditions: dose 50.0 µg/ml, time 1105.0 min
Staphylococcus aureus [10] = test: Photodynamic antibacterial activity against Staphylococcus aureus ATCC 43300 assessed as reduction in colony forming units at 50 ug/ml preincubated for 5 mins in PBS followed by light irradiation for 20 mins and later cultured on LB agar plate for 18 hrs by plate-count method; assay type: functional, organism-based; conditions: dose 50.0 µg/ml, time 1105.0 min
Staphylococcus aureus [11] = test: Photodynamic antibacterial activity against Staphylococcus aureus ATCC 700699 assessed as reduction in colony forming units at 50 ug/ml preincubated for 5 mins in PBS followed by light irradiation for 20 mins and later cultured on LB agar plate for 18 hrs by plate-count method; assay type: functional, organism-based; conditions: dose 50.0 µg/ml, time 1105.0 min
Escherichia coli [12] = test: Photodynamic antibacterial activity against Escherichia coli EPEC assessed as reduction in colony forming units at 50 ug/ml preincubated for 5 mins in PBS followed by light irradiation for 20 mins and later cultured on LB agar plate for 18 hrs by plate-count method; assay type: functional, organism-based; conditions: dose 50.0 µg/ml, time 1105.0 min
Escherichia coli [13] = test: Photodynamic antibacterial activity against Escherichia coli EHEC assessed as reduction in colony forming units at 50 ug/ml preincubated for 5 mins in PBS followed by light irradiation for 20 mins and later cultured on LB agar plate for 18 hrs by plate-count method; assay type: functional, organism-based; conditions: dose 50.0 µg/ml, time 1105.0 min
Staphylococcus aureus [14] = test: Photodynamic antibacterial activity against Staphylococcus aureus ATCC 25923 assessed as reduction in colony forming units at 50 to 100 ug/ml preincubated for 5 mins in PBS followed by light irradiation for 20 mins and later cultured on LB agar plate for 18 hrs by plate-count method; assay type: functional, organism-based; conditions: dose 50-100 µg/ml, time 1105.0 min
Staphylococcus aureus [15] = test: Photodynamic antibacterial activity against Staphylococcus aureus ATCC 29213 assessed as reduction in colony forming units at 50 to 100 ug/ml preincubated for 5 mins in PBS followed by light irradiation for 20 mins and later cultured on LB agar plate for 18 hrs by plate-count method; assay type: functional, organism-based; conditions: dose 50-100 µg/ml, time 1105.0 min
Staphylococcus aureus [16] = test: Photodynamic antibacterial activity against Staphylococcus aureus ATCC 43300 assessed as reduction in colony forming units at 50 to 100 ug/ml preincubated for 5 mins in PBS followed by light irradiation for 20 mins and later cultured on LB agar plate for 18 hrs by plate-count method; assay type: functional, organism-based; conditions: dose 50-100 µg/ml, time 1105.0 min
Staphylococcus aureus [17] = test: Photodynamic antibacterial activity against Staphylococcus aureus ATCC 700699 assessed as reduction in colony forming units at 50 to 100 ug/ml preincubated for 5 mins in PBS followed by light irradiation for 20 mins and later cultured on LB agar plate for 18 hrs by plate-count method; assay type: functional, organism-based; conditions: dose 50-100 µg/ml, time 1105.0 min
[18] = Drug uptake in Staphylococcus aureus assessed as increase in bacterial imaging at 10 ug/ml by laser scanning confocal microscopic analysis; assay type: ADME; conditions: dose 10 µg/ml
[19] = Drug uptake in Escherichia coli assessed as increase in bacterial imaging at 10 ug/ml by laser scanning confocal microscopic analysis; assay type: ADME; conditions: dose 10 µg/ml
Staphylococcus aureus [20] = test: Antibacterial activity against Staphylococcus aureus ATCC 25923 assessed as viable cells with tiny amount of PI emission at 10 ug/ml measured under dark conditions by PI co-staining based fluorescence analysis; assay type: functional, organism-based; conditions: dose 10.0 µg/ml
Staphylococcus aureus [21] = test: Photodynamic antibacterial activity against Staphylococcus aureus ATCC 25923 assessed as reduction in bacterial cell viability by measuring increase in PI-stained cells at 10 ug/ml preincubated for 5 mins in PBS followed by light irradiation for 20 mins by PI co-staining based fluorescence analysis; assay type: functional, organism-based; conditions: dose 10.0 µg/ml, time 25.0 min
[22] = Stability of the compound in the solution assessed as fluorescence intensity measured after 28 mins of light exposure by fluorescence based analysis; assay type: physicochemical; conditions: read-out: Stability
DNA [23] = test: Binding affinity to Staphylococcus aureus DNA assessed as change in absorbance spectrum by absorbance based analysis; assay type: nucleic-acid assay
DNA [24] = test: Binding affinity to Staphylococcus aureus DNA assessed as induction of genomic DNA degradation measured after 20 mins of light irradiation by absorbance based analysis; assay type: nucleic-acid assay; conditions: dose 12.5-100 µg/ml
Cell membrane [25] = test: Disruption of inner cell membrane in Staphylococcus aureus assessed as increase in cell permeability by measuring increase in PI fluorescence intensity at 12.5 to 50 ug/ml measured after light irradiation by PI based fluorescence based analysis; assay type: subcellular; conditions: dose 12.5-50 µg/ml
Cell membrane [26] = test: Disruption of cell membrane in Staphylococcus aureus assessed as increase in membrane depolarization by measuring increase in fluorescence intensity measured after light irradiation by DiBAC4(3) based fluorescence analysis; assay type: subcellular; conditions: dose 25-100 µg/ml
Cell membrane [27] = test: Binding affinity to cell membrane in Staphylococcus aureus assessed as membrane potential collapse at 25 to 100 ug/ml by measuring increase in fluorescence intensity measured under dark conditions by Rhodamine123 staining based fluorescence analysis; assay type: subcellular; conditions: dose 25-100 µg/ml
Cell membrane [28] = test: Binding affinity to cell membrane in Staphylococcus aureus assessed as membrane potential collapse at 25 to 50 ug/ml by measuring increase in fluorescence intensity measured after light irradiation by Rhodamine123 staining based fluorescence analysis; assay type: subcellular; conditions: dose 25-50 µg/ml
Staphylococcus aureus [29] = test: Photodynamic bactericidal activity against Staphylococcus aureus assessed as appearance of broken and shrunk bacterial cells at 50 ug/ml pretreated for 5 mins followed by light irradiation for 20 mins SEM analysis; assay type: functional, organism-based; conditions: dose 50.0 µg/ml, time 25.0 min
[30] = Drug uptake in Staphylococcus aureus ATCC 25923 measured after washing by absorbance based analysis; assay type: ADME
[31] = Drug uptake in Staphylococcus aureus ATCC 43300 measured after washing by absorbance based analysis; assay type: ADME
[32] = Drug uptake in Escherichia coli EHEC measured after washing by absorbance based analysis; assay type: ADME
Staphylococcus aureus [33] = test: Photodynamic antibacterial activity against Staphylococcus aureus infected in mouse assessed as reduction in pyosis in wounds at 50 ug/ml pretreated with compound followed by LED light irradiation for 30 mins and measured on day 1; assay type: functional, organism-based; conditions: dose 50.0 µg/ml, time 1.0 day
Staphylococcus aureus [34] = test: Photodynamic antibacterial activity against Staphylococcus aureus infected in mouse assessed as reduction in pyosis in wounds at 50 ug/ml pretreated with compound followed by LED light irradiation for 30 mins and measured on day 3; assay type: functional, organism-based; conditions: dose 50.0 µg/ml, time 3.0 day
Staphylococcus aureus [35] = test: Photodynamic antibacterial activity against Staphylococcus aureus infected in mouse assessed as reduction in pyosis in wounds at 50 ug/ml pretreated with compound followed by LED light irradiation for 30 mins and measured on day 5; assay type: functional, organism-based; conditions: dose 50.0 µg/ml, time 5.0 day
Staphylococcus aureus [36] = test: Photodynamic antibacterial activity against Staphylococcus aureus infected in mouse assessed as reduction in bacterial count in wounds at 50 ug/ml pretreated with compound followed by LED light irradiation for 30 mins and on day 5 the infected tissue harvested and cultured on LB agar plate and measured after 24 hrs by plate count method; assay type: functional, organism-based; conditions: dose 50.0 µg/ml, time 6.0 day
Staphylococcus aureus [37] = test: Antibacterial activity against Staphylococcus aureus infected in mouse assessed as reduction in pyosis in wounds at 50 ug/ml measured on day 1; assay type: functional, organism-based; conditions: dose 50.0 µg/ml, time 1.0 day
Staphylococcus aureus [38] = test: Photodynamic antibacterial activity against Staphylococcus aureus infected in mouse assessed as reduction in neutrophils content in wounds at 50 ug/ml and measured on day 3 by Hematoxylin-Eosin staining based analysis; assay type: functional, organism-based; conditions: dose 50.0 µg/ml, time 3.0 day
Staphylococcus aureus [39] = test: Antibacterial activity against Staphylococcus aureus ATCC 29213 assessed as inhibition of bacterial growth by CLSI based broth microdilution method; assay type: functional, organism-based

COc1ccc2c(c1)CC[n+]1cc3cc4c(cc3cc1-2)OCO4
Activity [1]: Active
Activity [2]: Active

COc1ccc2c(c1)CC[n+]1cc3c(OC)cccc3cc1-2.[Cl-]
Activity (Staphylococcus aureus [3]): ~5 log10CFU/ml
fold change (FC) [4]: ~ 10
Activity [1]: Active
Activity [2]: Active
MIC (Staphylococcus aureus [5]): 50 µg/mL
Activity (Escherichia coli [6]): Active; Activity Against Escherichia Coli Is Lower Than Staphylococcus Aureus
Activity (Staphylococcus aureus [7]): inactive
Activity (Staphylococcus aureus [8]): Time-dependent-effect
Activity (Staphylococcus aureus [9]): Active; Higher Activity Compared To Bbr And Mb But Lower Activity Compared To Ce6
Activity (Staphylococcus aureus [10]): Active; Higher Activity Compared To Bbr And Mb But Lower Activity Compared To Ce6
Activity (Staphylococcus aureus [11]): Active; Higher Activity Compared To Bbr And Mb But Lower Activity Compared To Ce6
Activity (Escherichia coli [12]): Active
Activity (Escherichia coli [13]): inactive
Activity (Staphylococcus aureus [14]): Dose-dependent-effect
Activity (Staphylococcus aureus [15]): Dose-dependent-effect
Activity (Staphylococcus aureus [16]): Dose-dependent-effect
Activity (Staphylococcus aureus [17]): Dose-dependent-effect
Drug uptake [18]: Active
Drug uptake [19]: Active
Activity (Staphylococcus aureus [20]): inactive
Activity (Staphylococcus aureus [21]): Active
remaining at 28 min [22]: ~90%
Activity (DNA [23]): Active
Activity (DNA [24]): Dose-dependent-effect
Activity (Cell membrane [25]): Dose-dependent-effect
Activity (Cell membrane [26]): Dose-dependent-effect
Activity (Cell membrane [27]): Active
Activity (Cell membrane [28]): Active
Activity (Staphylococcus aureus [29]): Active
Drug uptake [30]: Active
Drug uptake [31]: Not_active
Drug uptake [32]: Not_active
Activity (Staphylococcus aureus [33]): Active
Activity (Staphylococcus aureus [34]): Active; Pyosis Nearly Disappeared
Activity (Staphylococcus aureus [35]): Active; Favourable Wound Healing Status Observed
Activity (Staphylococcus aureus [36]): Active

COc1ccc2c(c1)CC[n+]1cc3ccccc3cc1-2
Activity [1]: inactive
Activity [2]: inactive

COc1ccc2c(c1)CC[n+]1cc3c4c(ccc3cc1-2)OCO4
Activity [1]: inactive
Activity [2]: inactive

COc1ccc2c(c1)CC[n+]1cc3cc(OC)ccc3cc1-2.[Cl-]
Activity (Staphylococcus aureus [3]): 4.5 log10CFU/ml
fold change (FC) [4]: ~ 10
Activity [1]: Active
Activity [2]: Active
Activity (Staphylococcus aureus [5]): Active
Activity (Escherichia coli [6]): Active; Activity Against Escherichia Coli Is Lower Than Staphylococcus Aureus
Activity (Staphylococcus aureus [7]): inactive
Activity (Staphylococcus aureus [8]): Time-dependent-effect
Activity (Escherichia coli [13]): inactive

COc1ccc2cc3[n+](cc2c1OC)CCc1cc2c(cc1-3)OCO2.[Cl-] [BERBERINE CHLORIDE]
Activity (Staphylococcus aureus [3]): 2 log10CFU/ml
remaining at 28 min [22]: 60%
Activity (Staphylococcus aureus [37]): inactive
Activity (Staphylococcus aureus [33]): inactive
Activity (Staphylococcus aureus [36]): Active
Activity (Staphylococcus aureus [38]): inactive

COc1cccc2cc3[n+](cc12)CCc1cc2c(cc1-3)OCO2.[Cl-]
Activity (Staphylococcus aureus [3]): 4 log10CFU/ml
Activity (Staphylococcus aureus [39]): Active
Activity (Staphylococcus aureus [7]): inactive

CCCCN1C(=O)C(=C/C=C/C2C(=O)N(CCCC)C(=O)N(CCCC)C2=O)C(=O)N(CCCC)C1=O
remaining at 28 min [22]: 40%

Reference: ChEMBL document CHEMBL6182918, “Developing Dual-State Emission Berberine Derivatives as Theranostic Agents by Reducing Nonradiative Transition Pathways” (J Med Chem, 2025)
